Patent US6960584B2 (Merck & Co., Inc., priority 2001, dated 2005)

How the values were obtained:
Type in all cases: biochemical
PKA catalytic subunit = target: T1, PKA catalytic subunit (Bos taurus, UniProt P00517); assay: PKA assay (counter screen)
T1 construct: purchased UBI (Upstate Biotechnology) 14-114
Description: Each individual PKA assay consists of the following components: • 1) 10 μl 5×PKA assay buffer (200 mM Tris pH7.5, 100 mM MgCl2, 5 mM 2-mercaptoethanol, 0.5 mM EDTA) • 2) 10 μl of a 50 μM stock of Kemptide (Sigma) diluted into water • 3) 10 μl ^33P-ATP (prepared by diluting 1.0 μl ^33P-ATP [10 mCi/ml] into 200 μl of a 50 μM stock of unlabeled ATP) • 4) 10 μl appropriate solvent control dilution or inhibitor dilution • 5) 10 μl of a 70 nM stock of PKA catalytic subunit (UBI catalog #14-114) diluted in 0.5 mg/ml BSA
The final assay concentrations were 40 mM Tris pH 7.5, 20 mM MgCl2, 1 mM 2-mercaptoethanol, 0.1 mM EDTA, 10 μM Kemptide, 10 μM ^33P-ATP, 14 nM PKA and 0.1 mg/ml BSA.
Assays were assembled in 96 deep-well assay plates. Components #3 and #4 were premixed and in a separate tube, a mixture containing equal volumes of components #1, #2, and #5 was prepared. The assay reaction was initiated by adding 30 μl of the components #1, #2, and #5 mixture to wells containing ^33P-ATP and inhibitor. The liquid in the assay wells was mixed and the assay reactions incubated for 20 minutes at room temperature. […]
The enzyme reaction product (phosphorylated Kemptide) was quantitated using p81 phosphocellulose 96 well filter plates (Millipore). […] 30 μl scintillation fluid was added to each well and the filters counted on a TopCount (Packard).

PKC (mix of isoforms) = assay: PKC assay (counter screen); conditions: myelin basic protein substrate; read-out: Counter screens IC50 (μM) PKC
Description: Final assay concentrations were as follows: 0.25 mM EGTA, 0.4 mM CaCl, 20 mM Tris pH 7.5, 10 mM MgCl, 1 mM 2-mercaptoethanol, 0.32 mg/ml phosphatidylserine, 0.032 mg/ml diacylglycerol, 10 μM ^33P-ATP, 70 μg/ml MBP, 10 ng/ml PKC, 0.1 mg/ml BSA.
Assays are performed using 96 deep well assay plates. In each assay well 10 μl of solvent control or appropriate inhibitor dilution with 5 μl ^33P-ATP (components #5 and #3) were premixed. In a separate tube, a mixture containing equal volumes of components #1, #2, #4, and #6 was prepared. The assay reaction was initiated by adding 35 μl of the components #1, #2, #4, and #6 mixture to wells containing ^33P-ATP and inhibitor. The liquid in the assay wells was thoroughly mixed and the assay reactions incubated for 20 minutes at room temperature. The reactions were stopped by adding 100 mM EDTA (50 μl) and 100 mM sodium pyrophosphate (50 μl) and mixing. Phosphorylated MBP was collected on PVDF membranes in 96 well filter plates and quantitated by scintillation counting.

Akt3 = target: T2, Akt3 (Homo sapiens, UniProt Q9Y243); assay: Akt kinase assay, phosphorylation of GSK3-derived peptide
T2 construct: a middle T tag was added to the 5′ end of the full length Akt3 clone using the PCR primer; biotin tag (from pS2neo vector); made in house; host or cells: Drosophila S2 cells
Excerpt: (§1) This procedure describes a kinase assay which measures phosphorylation of a biotinylated GSK3-derived peptide by human recombinant active Akt/PBK isoforms or Akt/PBK mutants. The ^33P-labeled biotinylated product can be captured and detected using Streptavidin coated Flashplates (NEN LifeSciences) or Streptavidin Membrane Filter Plates (Promega). Alternatively, a GSK3-derived peptide with 2 added lysine residues was used as the substrate and subsequently captured using Phosphocellulose Membrane Filter Plates (Polyfiltronics).
(§2) Active human Akt: The following active human Akt isoforms were utilized in the in vitro assays: active human Akt1 (obtained from Upstate Biotechnology, catalog no. 14-276, 15 μg/37 μl (6.76 μM)) or recombinant lipid activated Akt1 (prepared as described in Example 5); Akt2 (prepared as described in Example 5); Akt3 (prepared as described in Example 5); and delta PH-Akt1 (prepared as described in Example 5).
(§3) Akt specific peptide substrate: GSK3α (S21) Peptide #3928, biotin-[…] (SEQ.ID.NO.: 15), FW=1517.8 (obtained from Macromolecular Resources) for Streptavidin Flashplate or Streptavidin Filter Plate detection.
(§4) GSK3α (S21) Peptide #G80613, […] (SEQ.ID.NO.: 14), FW=1547.8 (obtained from Research Genetics) for Phosphocellulose filter plate detection.
(§5) • B. Active Akt (500 nM): Diluent (1× Assay buffer, 10% glycerol, 0.1% β-mercaptoethanol, 1.0 μM microcystin LR and 1.0 mM EDTA) was added to a vial containing 37 μl of active Akt isoform (6.76 μM). Aliquots were flash frozen in liquid N2 and stored at −70° C. • C. […] Procedure for Streptavidin Flash Plate Assay: Step 1: […]
(§6) The plates were covered with sealing tape and counted using the Packard TopCount with the appropriate settings for counting [^33P] in Flashplates. […]
(§7) The bottom of the plate was sealed with white backing tape, 30 μl/well of Microscint 20 (Packard Instruments, catalog no. 6013621) was added. The top of the plate was sealed with clear sealing tape, and the plate then counted using the Packard TopCount with the appropriate settings for [^33P] with liquid scintillant. […]

Akt2 = target: T3, Akt2 (Homo sapiens, UniProt P31751); assay: as above
T3 construct: a middle T tag was added to the 5′ end of the full length Akt2 using the PCR primer; biotin tag (from pS2neo vector); made in house; host or cells: Drosophila S2 cells
Excerpt: as §1, §2, §3, §4, §5, §6, §7

active human Akt1 = target: T4, active human Akt1 (Homo sapiens, UniProt P31749); assay: as above; conditions: GSK3 peptide substrate; read-out: GSK3 Peptide Substrate IC50 (μM) Akt-1
T4 construct: purchased Upstate Biotechnology 14-276
Excerpt: as §1, §2, §3, §4, §5, §6, §7

delta PH-Akt1 = target: T5, delta PH-Akt1 (Homo sapiens, UniProt P31749); assay: as above
T5 construct: PCR deletion mutagenesis was done using the full length Akt1 gene in the pS2neo vector as template; biotin tag (from pS2neo vector); made in house; host or cells: Drosophila S2 cells
Description: For the expression of a pleckstrin homology domain (PH) deleted (Δ aa 4-129, which includes deletion of a portion of the Akt1 hinge region) version of Akt1, PCR deletion mutagenesis was done using the full length Akt1 gene in the pS2neo vector as template. The PCR was carried out in 2 steps using overlapping internal primers (5′[…]Δ[…] 3′ (SEQ.ID.NO.: 6), and 5′[…]Δ[…] TATTC 3′ (SEQ.ID.NO.: 7)) which encompassed the deletion and 5′ and 3′ flanking primers which encompassed the KpnI site and middle T tag on the 5′ end. The final PCR product was digested with KpnI and SmaI and ligated into the pS2neo full length Akt1 KpnI/Sma I cut vector, effectively replacing the 5′ end of the clone with the deleted version.
as §1, with “(Polyfiltronics). […]” for “(Polyfiltronics).”
as §6

T2 sequence (Q9Y243 whole entry): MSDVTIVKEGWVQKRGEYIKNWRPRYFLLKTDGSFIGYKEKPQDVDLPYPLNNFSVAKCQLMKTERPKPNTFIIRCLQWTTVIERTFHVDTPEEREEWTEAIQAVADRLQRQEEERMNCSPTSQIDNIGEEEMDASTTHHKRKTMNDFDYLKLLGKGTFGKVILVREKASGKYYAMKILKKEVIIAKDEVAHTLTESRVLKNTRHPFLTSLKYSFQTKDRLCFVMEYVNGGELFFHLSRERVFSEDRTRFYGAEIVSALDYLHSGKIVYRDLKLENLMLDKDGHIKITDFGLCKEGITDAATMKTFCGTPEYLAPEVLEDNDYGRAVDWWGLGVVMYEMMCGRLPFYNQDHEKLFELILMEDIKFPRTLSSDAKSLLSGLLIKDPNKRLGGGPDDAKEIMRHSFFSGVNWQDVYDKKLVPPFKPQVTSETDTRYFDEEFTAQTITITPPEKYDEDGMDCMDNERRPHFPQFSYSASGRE
T5 sequence (P31749 with tags, fused parts or gaps): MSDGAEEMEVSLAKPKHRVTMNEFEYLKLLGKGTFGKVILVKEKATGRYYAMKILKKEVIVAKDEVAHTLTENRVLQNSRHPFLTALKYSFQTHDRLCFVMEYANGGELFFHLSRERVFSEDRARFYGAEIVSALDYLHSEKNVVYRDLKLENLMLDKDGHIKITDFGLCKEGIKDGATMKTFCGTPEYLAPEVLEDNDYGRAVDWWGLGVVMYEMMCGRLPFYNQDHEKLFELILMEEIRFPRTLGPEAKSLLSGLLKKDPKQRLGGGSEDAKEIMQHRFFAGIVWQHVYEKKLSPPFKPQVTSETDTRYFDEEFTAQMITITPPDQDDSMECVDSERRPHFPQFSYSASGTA
T3 sequence (P31751 whole entry): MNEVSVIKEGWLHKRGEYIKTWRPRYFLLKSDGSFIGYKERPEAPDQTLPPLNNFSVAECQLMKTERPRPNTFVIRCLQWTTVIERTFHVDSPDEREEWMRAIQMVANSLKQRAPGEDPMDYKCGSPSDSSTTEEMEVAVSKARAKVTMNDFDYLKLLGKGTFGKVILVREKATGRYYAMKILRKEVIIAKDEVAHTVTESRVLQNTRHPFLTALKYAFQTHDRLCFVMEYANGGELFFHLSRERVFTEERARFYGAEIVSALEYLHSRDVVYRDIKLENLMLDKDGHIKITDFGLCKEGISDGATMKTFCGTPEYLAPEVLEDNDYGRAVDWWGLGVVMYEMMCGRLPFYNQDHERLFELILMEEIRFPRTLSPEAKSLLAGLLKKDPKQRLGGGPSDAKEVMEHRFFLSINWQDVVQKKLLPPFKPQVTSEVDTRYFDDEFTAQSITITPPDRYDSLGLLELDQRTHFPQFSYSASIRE
T4 sequence (P31749 whole entry): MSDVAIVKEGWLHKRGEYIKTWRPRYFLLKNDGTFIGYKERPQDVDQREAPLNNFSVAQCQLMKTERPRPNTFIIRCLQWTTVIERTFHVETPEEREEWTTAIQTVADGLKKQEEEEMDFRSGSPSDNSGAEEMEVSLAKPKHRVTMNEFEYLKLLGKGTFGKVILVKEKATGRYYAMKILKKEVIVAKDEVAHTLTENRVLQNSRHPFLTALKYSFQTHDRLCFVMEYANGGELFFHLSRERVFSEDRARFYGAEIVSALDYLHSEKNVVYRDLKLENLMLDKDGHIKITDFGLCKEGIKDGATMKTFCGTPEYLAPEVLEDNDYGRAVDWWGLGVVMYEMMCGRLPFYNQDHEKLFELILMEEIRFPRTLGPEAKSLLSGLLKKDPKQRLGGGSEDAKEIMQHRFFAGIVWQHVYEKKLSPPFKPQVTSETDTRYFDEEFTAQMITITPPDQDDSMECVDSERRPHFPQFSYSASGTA

Work on `OCCCCOc1nn2c(-c3ccccc3)nnc2cc1-c1ccccc1` [Compound 2] yielded an IC50 (PKA catalytic subunit) greater than 40 µM, an IC50 (PKC (mix of isoforms)) greater than 40 µM and an IC50 (Akt3) greater than 50 µM. The IC50 (Akt2) was greater than 50 µM, the IC50 (active human Akt1) was 4.65 µM and the IC50 (delta PH-Akt1) was greater than 50 µM.

`OCCOc1nn2c(-c3ccccc3)nnc2cc1-c1ccccc1` [Compound 1, 6-(2-Hydroxyethyl)oxy-3,7-diphenyl-[1,2,4]triazolo[4,3-b]pyridazine] was tested, and the IC50 (PKC (mix of isoforms)) was greater than 40 µM.
